How the values were obtained:
Type in all cases: in vivo, mouse
hepatic DEPs = assay: Hepatic differentially expressed proteins (TMT LC-MS/MS) in treated TX mice; conditions: liver, 50 mg/kg/day
Protocol: (§1) In order to confirm the positive role of TDMQ20 in the treatment of TX mice, we performed proteomic experiments. Samples from three mice of each group were depicted in Table 1, The samples were treated with TMT (Tandem Mass Tag) and detected by quantitative LC-MS/MS, then the data were analyzed with ProteomeDiscoverer 2.4.1.15 (ThermoFisher Scientific). Confidence proteins were screened according to the criteria of Sequest program score greater than 0 and number of unique peptides greater than or equal to 1, and blank values were removed.
(§2) Other differentially expressed proteins (DEPs) were screened at p<0.05 in the WD mouse group compared to the control group. […] Results are reported in Table 3 and 4 for hepatic and serum proteins, respectively.

serum DEPs = assay: Serum differentially expressed proteins (TMT LC-MS/MS) in treated TX mice
Protocol: as §1, §2

ceruloplasmin (CP) = assay: Serum ceruloplasmin by TMT LC-MS/MS in treated TX mice; conditions: for CP level compared with control mice: serum of TX mice
Protocol: as §1
The concentration of ceruloplasmin (CP), that contains the most part of blood copper, was measured by TMT LC-MS/MS in the serum of WD mice. […] The CP level was equal (25 mg/kg) or higher (50 mg/kg) than that observed in control mice. Since the level of CP is considered as a significant parameter in the clinical control of human Wilson's disease, the reversal of the CP impairment upon treatment by TDMQ20 confirms that this drug has a very good profile as drug-candidate for the treatment of Wilson's disease.

[1] = serum, 25 mg/kg/day, DEP down-regulated in WD
[2] = serum, 25 mg/kg/day, DEP up-regulated in WD
[3] = serum, 50 mg/kg/day, DEP down-regulated in WD
[4] = serum, 50 mg/kg/day, DEP up-regulated in WD

Compound: CN(C)CCNCCc1ccc2c(Cl)cc(Cl)c(N)c2n1 [TDMQ20]
- TDMQ20-H/control fold change: Pyridoxine-5′-phosphate oxidase (Pnpo) (hepatic DEPs; DEP down-regulated in WD): 0.90
- TDMQ20-H/control fold change: Ribosome biogenesis protein BOP1 (Bop1) (hepatic DEPs; DEP down-regulated in WD): 0.97
- TDMQ20-H/control fold change: Triosephosphate isomerase (Tpi1) (hepatic DEPs; DEP down-regulated in WD): 0.90
- TDMQ20-H/control fold change: 28 kDa heat- and acid-stable phosphoprotein (Pdap1) (hepatic DEPs; DEP up-regulated in WD): 1.10
- TDMQ20-H/control fold change: AN1-type zinc finger protein 6 (Zfand6) (hepatic DEPs; DEP up-regulated in WD): 0.91
- TDMQ20-H/control fold change: ATP synthase subunit a (Mtatp6) (hepatic DEPs; DEP up-regulated in WD): 0.91
- TDMQ20-H/control fold change: Afadin (Afdn) (hepatic DEPs; DEP up-regulated in WD): 1.05
- TDMQ20-H/control fold change: Agmatinase, mitochondrial (Agmat) (hepatic DEPs; DEP up-regulated in WD): 1.01
- TDMQ20-H/control fold change: Alanine glyoxylate aminotransferase (Agxt) (hepatic DEPs; DEP up-regulated in WD): 1.03
- TDMQ20-H/control fold change: Alpha-1-antitrypsin-1-2 (Serpina1b) (hepatic DEPs; DEP up-regulated in WD): 1.04
- TDMQ20-H/control fold change: Cyclin-dependent kinase inhibitor 1B (Cdkn1b) (hepatic DEPs; DEP up-regulated in WD): 1.10
- TDMQ20-H/control fold change: Epsin-1 (Epn1) (hepatic DEPs; DEP up-regulated in WD): 0.93
- TDMQ20-H/control fold change: Exosome complex exonuclease RRP44 (Dis3) (hepatic DEPs; DEP up-regulated in WD): 1.00
- TDMQ20-H/control fold change: Histone H2A.V (hepatic DEPs; DEP up-regulated in WD): 1.19
- TDMQ20-H/control fold change: Histone H2B type 1-H (H2bc9) (hepatic DEPs; DEP up-regulated in WD): 1.07
- TDMQ20-H/control fold change: Histone H4 (H4c16) (hepatic DEPs; DEP up-regulated in WD): 1.15
- TDMQ20-H/control fold change: Mitochondrial dicarboxylase carrier (Slc25a10) (hepatic DEPs; DEP up-regulated in WD): 1.00
- TDMQ20-H/control fold change: Mitochondrial outer membrane protein SLC25A46 (Slc25a46) (hepatic DEPs; DEP up-regulated in WD): 1.11
- TDMQ20-H/control fold change: NADPH adrenodoxin oxidoreductase, mitochondrial (Fdxr) (hepatic DEPs; DEP up-regulated in WD): 1.04
- TDMQ20-H/control fold change: OCIA domain-containing protein 1 (Ociad1) (hepatic DEPs; DEP up-regulated in WD): 1.08
- TDMQ20-H/control fold change: PRKC apoptosis WT1 regulator protein (Pawr) (hepatic DEPs; DEP up-regulated in WD): 1.18
- TDMQ20-H/control fold change: Peroxisomal membrane protein-2 (Pxmp2) (hepatic DEPs; DEP up-regulated in WD): 0.98
- TDMQ20-H/control fold change: Probable ATP-dependent RNA helicase DDX17 (Ddx17) (hepatic DEPs; DEP up-regulated in WD): 1.11
- TDMQ20-H/control fold change: Protein Hook homolog 1 (Hook1) (hepatic DEPs; DEP up-regulated in WD): 0.94
- TDMQ20-H/control fold change: Protein LYRIC (Mtdh) (hepatic DEPs; DEP up-regulated in WD): 1.06
- TDMQ20-H/control fold change: Protein scribble homolog (Scrib) (hepatic DEPs; DEP up-regulated in WD): 1.09
- TDMQ20-H/control fold change: Protein-glutamine gamma-glutamyltransferase K (Tgm1) (hepatic DEPs; DEP up-regulated in WD): 0.84
- TDMQ20-H/control fold change: Regucalcin (Rgn) (hepatic DEPs; DEP up-regulated in WD): 0.91
- TDMQ20-H/control fold change: Ribonuclease P protein subunit p30 (Rpp30) (hepatic DEPs; DEP up-regulated in WD): 1.20
- TDMQ20-H/control fold change: SET nuclear proto-oncogene (Set) (hepatic DEPs; DEP up-regulated in WD): 1.01
- TDMQ20-H/control fold change: Sideroflexin-5 (Sfxn5) (hepatic DEPs; DEP up-regulated in WD): 0.96
- TDMQ20-H/control fold change: Zinc transporter 10 (Slc30a10) (hepatic DEPs; DEP up-regulated in WD): 0.9
- serum DEPs TDMQ20-H/control ratio (serum DEPs; TDMQ20 50 mg/kg): ~1
- serum DEPs after treatment (serum DEPs; TDMQ20 at 25 or 50 mg/kg): reversed to normal values
- TDMQ20-M/ctrl fold change: Alpha-aminoadipic semialdehyde synthase, mitochondrial (Aass) (serum DEPs; [1]): 0.97
- TDMQ20-M/ctrl fold change: Cystatin-C (Cst3) (serum DEPs; [1]): 0.88
- TDMQ20-M/ctrl fold change: Elongation factor 1-delta (Eef1d) (serum DEPs; [1]): 0.85
- TDMQ20-M/ctrl fold change: GrpE protein homolog 1, mitochondrial (Grpel1) (serum DEPs; [1]): 0.95
- TDMQ20-M/ctrl fold change: Transgelin-2 (Tagln2) (serum DEPs; [1]): 0.87
- TDMQ20-M/ctrl fold change: Ig heavy chain V region 1-72 (Ighv1-72) (serum DEPs; [2]): 1.08
- TDMQ20-M/ctrl fold change: Regucalcin (Rgn) (serum DEPs; [2]): 1.06
- TDMQ20-M/ctrl fold change: Ribonuclease 4 (Rnase4) (serum DEPs; [2]): 1.10
- TDMQ20-M/ctrl fold change: Triokinase/FMN cyclase (Tkfc) (serum DEPs; [2]): 1.07
- TDMQ20-M/ctrl fold change: Tropomyosin alpha-3 chain (Tpm3) (serum DEPs; [2]): 1.11
- TDMQ20-H/ctrl fold change: Alpha-aminoadipic semialdehyde synthase, mitochondrial (Aass) (serum DEPs; [3]): 0.93
- TDMQ20-H/ctrl fold change: Cystatin-C (Cst3) (serum DEPs; [3]): 0.92
- TDMQ20-H/ctrl fold change: Elongation factor 1-delta (Eef1d) (serum DEPs; [3]): 0.88
- TDMQ20-H/ctrl fold change: GrpE protein homolog 1, mitochondrial (Grpel1) (serum DEPs; [3]): 1.04
- TDMQ20-H/ctrl fold change: Transgelin-2 (Tagln2) (serum DEPs; [3]): 0.91
- TDMQ20-H/ctrl fold change: Ig heavy chain V region 1-72 (Ighv1-72) (serum DEPs; [4]): 1.15
- TDMQ20-H/ctrl fold change: Regucalcin (Rgn) (serum DEPs; [4]): 0.88
- TDMQ20-H/ctrl fold change: Ribonuclease 4 (Rnase4) (serum DEPs; [4]): 1.03
- TDMQ20-H/ctrl fold change: Triokinase/FMN cyclase (Tkfc) (serum DEPs; [4]): 0.95
- TDMQ20-H/ctrl fold change: Tropomyosin alpha-3 chain (Tpm3) (serum DEPs; [4]): 0.95
- level of CP compared to WD mice (ceruloplasmin (CP); TDMQ20 at 25 or 50 mg/kg): significantly increased
- CP level compared with control mice (ceruloplasmin (CP); TDMQ20 25 mg/kg): equal
- CP level compared with control mice (ceruloplasmin (CP); TDMQ20 50 mg/kg): higher

Reference: patent US20250127772A1, “SPECIFIC TETRADENTATE COPPER CHELATORS FOR THE TREATMENT OF WILSON'S DISEASE” (GUANGDONG UNIVERSITY OF TECHNOLOGY, priority 2023, published 2025)
